In one assay the test system is Fusarium solani. The assay is described as follows: In vitro MIC, microtiter serial dilution. Type of assay: cell-based.
Another assay relates to Rhizoctonia solani R2. As to conditions: Rhizoctonia solani R2, mycelial fragments.
For another assay, the system named is Thielaviopsis basicola. The assay is described as follows: In vitro MIC, microtiter serial dilution. Type of assay: cell-based.
For assay [1], the system named is Botrytis cinerea. The assay is described as follows: Anti-Botrytis leaf disk bioassay, transgenic poinsettia. As to conditions: control = 100.
For assay [2], the system named is Pseudomonas syringae and Erwinia carotovora. As to conditions: for activity against log phase-grown Pseudomomas and Erwinia: compared with MSI-99 and D5-C.
Assay [3] concerns Phytophthora parasitica (vinca). The experiment in a line: In vitro MIC, microtiter serial dilution. It counts as cell-based.
For the next assay, the system named is Erwinia carotovora. The assay is described as follows: In vitro MIC, microtiter serial dilution. It counts as cell-based. The following applies: inhibits all growth after 24 hrs.
Assay [4] has as its system Botrytis cinerea. The experiment in a line: Anti-Botrytis leaf disk bioassay, transgenic petunia. The following applies: control = 100.
Assay [5] concerns Phytophthora parasitica (petunia). The experiment in a line: In vitro MIC, microtiter serial dilution. It counts as cell-based. As to conditions: germinated.
For another assay, the system named is Pseudomonas syringae. The assay is described as follows: In vitro MIC, microtiter serial dilution. As to conditions: inhibits all growth after 24 hrs. Type of assay: cell-based.
The next assay relates to Fusarium graminearum. Type of assay: cell-based. The following applies: non-germinated.
Assay [6] concerns Botrytis cinerea. The experiment in a line: In vitro MIC, microtiter serial dilution. Type of assay: cell-based.
[7] abbreviates: plasmid 144, three distinct plants.
[8] abbreviates: plasmid 143, three distinct plants.

SMILES strings stand for the structures. Where “and” joins values, the source holds several entries; their conditions need not be identical. Equal values may be shown once. Residues, ends and D or L forms follow the SMILES beside them.

Take `CC[C@H](C)[C@H](NC(=O)[C@H](CCCCN)NC(=O)[C@H](CCCNC(=N)N)NC(=O)[C@H](C)NC(=O)[C@H](CC(C)C)NC(=O)[C@H](CCCCN)NC(=O)[C@H](CCCCN)NC(=O)[C@H](CC(C)C)NC(=O)[C@H](CCCNC(=N)N)NC(=O)[C@H](CCCNC(=N)N)NC(=O)CNC(=O)[C@@H](NC(=O)[C@H](CCCNC(=N)N)NC(=O)[C@H](CCCCN)NC(=O)[C@@H](NC(=O)[C@H](C)NC(=O)[C@H](CCCNC(=N)N)NC(=O)[C@H](CCCCN)NC(=O)[C@H](CCCNC(=N)N)NC(=O)[C@H](CCCCN)NC(=O)[C@@H](N)CCSC)C(C)C)C(C)C)C(=O)N[C@@H](C)C(=O)N[C@@H](CCCNC(=N)N)C(=O)N[C@@H](CC(C)C)C(=O)NCC(=O)N[C@H](C(=O)N[C@@H](C)C(=O)N[C@@H](Cc1ccccc1)C(=O)O)C(C)C` [D5-C, reference compound] (H-MKRKRAVKRVGRRLKKLARKIARLGVAF-OH): the “Minimum Inhibitory Concentration” value with Fusarium solani (germinated) was 4 µg/mL; in the assay with Fusarium solani (non-germinated), 4 µg/mL; in the assay with Rhizoctonia solani R2, 32 to 64 µg/mL; in the assay with Thielaviopsis basicola (germinated), 16 µg/mL; in the assay with Thielaviopsis basicola (non-germinated), 16 µg/mL; in assay [3] (germinated), 16 to 32 µg/mL. Further, the figures for the “Minimum Inhibitory Concentration” value (in assay [3] (non-germinated); with Erwinia carotovora; in assay [5]) were 16 µg/mL, 2 µg/mL and 16 to 32 µg/mL, respectively. Also, the “Disease Incidence, percent leaf disks infected relative to untransformed control” value in the assay with Botrytis cinerea [1] (setting [7]) was 62% and 68% and 72%; with Botrytis cinerea [1] (plasmid 165, three distinct plants), 42% and 60% and 67%; with Botrytis cinerea [4] (setting [7]) it was 31% and 41% and 50%; in the assay with Botrytis cinerea [4] (plasmid 148, three distinct plants), 52% and 70% and 75%. The same molecule displayed an MIC in [2] of less than 2 µg/mL.
Turning to `CC[C@H](C)[C@H](NC(=O)CNC(=O)[C@@H](N)CCSC)C(=O)NCC(=O)N[C@@H](CCCCN)C(=O)N[C@@H](Cc1ccccc1)C(=O)N[C@@H](CC(C)C)C(=O)N[C@@H](CCCCN)C(=O)N[C@@H](CO)C(=O)N[C@@H](C)C(=O)N[C@@H](CCCCN)C(=O)N[C@@H](CCCCN)C(=O)N[C@@H](Cc1ccccc1)C(=O)NCC(=O)N[C@@H](CCCCN)C(=O)N[C@@H](C)C(=O)N[C@@H](Cc1ccccc1)C(=O)N[C@H](C(=O)N[C@@H](CCCCN)C(=O)N[C@H](C(=O)N[C@@H](CC(C)C)C(=O)N[C@@H](CC(N)=O)C(=O)N[C@@H](CO)C(=O)O)[C@@H](C)CC)C(C)C` [MSI-99] (H-MGIGKFLKSAKKFGKAFVKILNS-OH; N-terminus and C-terminus assumed), the “Minimum Inhibitory Concentration” value came out at 4 µg/mL in the assay with Fusarium solani (germinated); 2 µg/mL in the assay with Fusarium solani (non-germinated); 1 µg/mL in the assay with Pseudomonas syringae; 16 µg/mL in the assay on Rhizoctonia solani R2; 4 µg/mL in the assay with Thielaviopsis basicola (germinated); 4 µg/mL in the assay with Thielaviopsis basicola (non-germinated). Further, the “Minimum Inhibitory Concentration” value was 4 µg/mL with Fusarium graminearum; 16 to 32 µg/mL in assay [3] (germinated); 64 µg/mL in assay [3] (non-germinated); 1 µg/mL in the assay with Erwinia carotovora; 8 µg/mL in the assay on Botrytis cinerea [6] (germinated); 8 µg/mL in the assay with Botrytis cinerea [6] (non-germinated). Moreover, in [5], the “Minimum Inhibitory Concentration” value was 8 to 16 µg/mL. In addition, the “Disease Incidence, percent leaf disks infected relative to untransformed control” value was 48% and 61% and 69% in the assay with Botrytis cinerea [1] (setting [8]); 31% and 40% and 52% in the assay on Botrytis cinerea [1] (plasmid 168, three distinct plants); 26% and 30% and 31% in the assay on Botrytis cinerea [4] (setting [8]); 36% and 60% and 70% in the assay with Botrytis cinerea [4] (plasmid 147, three distinct plants). Besides, in assay [2], the MIC is less than 2 µg/mL.
With `CC[C@H](C)[C@H](NC(=O)CNC(=O)[C@@H](N)CCSC)C(=O)NCC(=O)N[C@@H](CCCCN)C(=O)N[C@@H](Cc1ccccc1)C(=O)N[C@@H](CC(C)C)C(=O)N[C@@H](Cc1c[nH]cn1)C(=O)N[C@@H](CO)C(=O)N[C@@H](C)C(=O)N[C@@H](CCCCN)C(=O)N[C@@H](CCCCN)C(=O)N[C@@H](Cc1ccccc1)C(=O)NCC(=O)N[C@@H](CCCCN)C(=O)N[C@@H](C)C(=O)N[C@@H](Cc1ccccc1)C(=O)N[C@H](C(=O)NCC(=O)N[C@@H](CCC(=O)O)C(=O)N[C@H](C(=O)N[C@@H](CCSC)C(=O)N[C@@H](CC(N)=O)C(=O)N[C@@H](CO)C(=O)O)[C@@H](C)CC)C(C)C` [Mag 2] (H-MGIGKFLHSAKKFGKAFVGEIMNS-OH; N-terminus and C-terminus assumed), the “Minimum Inhibitory Concentration” value was 4 to 8 µg/mL in the assay with Fusarium solani (germinated); 4 µg/mL with Fusarium solani (non-germinated); 32 µg/mL in the assay with Pseudomonas syringae; 16 to 32 µg/mL with Rhizoctonia solani R2; 4 µg/mL in the assay with Thielaviopsis basicola (germinated); 8 µg/mL in the assay with Thielaviopsis basicola (non-germinated). For the same molecule, the “Minimum Inhibitory Concentration” value was 4 µg/mL in the assay with Fusarium graminearum; more than 128 µg/mL in [3] (germinated); more than 256 µg/mL in [3] (non-germinated); 32 µg/mL with Erwinia carotovora; 8 µg/mL in the assay with Botrytis cinerea [6] (germinated); 8 to 16 µg/mL in the assay on Botrytis cinerea [6] (non-germinated). Moreover, the “Minimum Inhibitory Concentration” value in assay [5] is more than 128 µg/mL. The “activity against log phase-grown Pseudomomas and Erwinia” value in assay [2] is recorded as “significantly less active”.
On to `CC[C@H](C)[C@H](NC(=O)[C@H](C)NC(=O)CNC(=O)[C@H](C)NC(=O)[C@H](CCCCN)NC(=O)[C@H](CO)NC(=O)[C@H](C)NC(=O)[C@H](CCSC)NC(=O)CN)C(=O)N[C@@H](C)C(=O)NCC(=O)N[C@@H](CCCCN)C(=O)N[C@H](C(=O)N[C@@H](C)C(=O)N[C@@H](CCCCN)C(=O)N[C@H](C(=O)N[C@@H](C)C(=O)N[C@@H](CC(C)C)C(=O)N[C@@H](CCCCN)C(=O)N[C@@H](C)C(=O)N[C@@H](CC(C)C)C(N)=O)C(C)C)[C@@H](C)CC` [PGL] (H-GMASKAGAIAGKIAKVALKAL-NH2), for which the “Minimum Inhibitory Concentration” value was 8 to 16 µg/mL in the assay on Fusarium solani (germinated); 4 µg/mL with Fusarium solani (non-germinated); more than 64 µg/mL in the assay on Pseudomonas syringae; 16 to 32 µg/mL in the assay with Rhizoctonia solani R2; 4 µg/mL in the assay on Thielaviopsis basicola (germinated); 4 to 8 µg/mL in the assay on Thielaviopsis basicola (non-germinated). Moreover, the “Minimum Inhibitory Concentration” value in the assay on Fusarium graminearum was 4 to 8 µg/mL; in assay [3] (germinated), more than 128 µg/mL; in assay [3] (non-germinated), more than 256 µg/mL; with Erwinia carotovora it was 32 µg/mL; with Botrytis cinerea [6] (germinated) it was 8 µg/mL; with Botrytis cinerea [6] (non-germinated), 4 to 8 µg/mL. Also, the “Minimum Inhibitory Concentration” value in [5] was more than 128 µg/mL. Also, in assay [2], the “activity against log phase-grown Pseudomomas and Erwinia” value is recorded as “significantly less active”.

(Values after patent US6235973A, “Expression of magainin and PGL classes of antimicrobial peptide genes in plants, and their use in creating resistance to multiple plant pathogens” (Sanford Scientific, Inc., priority 1998, dated 2001).)
